In ChEMBL document CHEMBL4680157, “Design, synthesis and biological evaluation of novel TRβ selective agonists sustained by ADME-toxicity analysis” (Eur J Med Chem, 2020):

Columns and labels:
[1] = molecular target: HDAC4 (Homo sapiens, UniProt P56524); assay: Inhibition of HDAC4 (unknown origin) at 10 uM relative to control
[2] = molecular target: T1, HDAC6 (Homo sapiens, UniProt Q9UBN7); assay: Inhibition of HDAC6 (unknown origin) at 10 uM relative to control
T1 sequence (Q9UBN7 whole entry): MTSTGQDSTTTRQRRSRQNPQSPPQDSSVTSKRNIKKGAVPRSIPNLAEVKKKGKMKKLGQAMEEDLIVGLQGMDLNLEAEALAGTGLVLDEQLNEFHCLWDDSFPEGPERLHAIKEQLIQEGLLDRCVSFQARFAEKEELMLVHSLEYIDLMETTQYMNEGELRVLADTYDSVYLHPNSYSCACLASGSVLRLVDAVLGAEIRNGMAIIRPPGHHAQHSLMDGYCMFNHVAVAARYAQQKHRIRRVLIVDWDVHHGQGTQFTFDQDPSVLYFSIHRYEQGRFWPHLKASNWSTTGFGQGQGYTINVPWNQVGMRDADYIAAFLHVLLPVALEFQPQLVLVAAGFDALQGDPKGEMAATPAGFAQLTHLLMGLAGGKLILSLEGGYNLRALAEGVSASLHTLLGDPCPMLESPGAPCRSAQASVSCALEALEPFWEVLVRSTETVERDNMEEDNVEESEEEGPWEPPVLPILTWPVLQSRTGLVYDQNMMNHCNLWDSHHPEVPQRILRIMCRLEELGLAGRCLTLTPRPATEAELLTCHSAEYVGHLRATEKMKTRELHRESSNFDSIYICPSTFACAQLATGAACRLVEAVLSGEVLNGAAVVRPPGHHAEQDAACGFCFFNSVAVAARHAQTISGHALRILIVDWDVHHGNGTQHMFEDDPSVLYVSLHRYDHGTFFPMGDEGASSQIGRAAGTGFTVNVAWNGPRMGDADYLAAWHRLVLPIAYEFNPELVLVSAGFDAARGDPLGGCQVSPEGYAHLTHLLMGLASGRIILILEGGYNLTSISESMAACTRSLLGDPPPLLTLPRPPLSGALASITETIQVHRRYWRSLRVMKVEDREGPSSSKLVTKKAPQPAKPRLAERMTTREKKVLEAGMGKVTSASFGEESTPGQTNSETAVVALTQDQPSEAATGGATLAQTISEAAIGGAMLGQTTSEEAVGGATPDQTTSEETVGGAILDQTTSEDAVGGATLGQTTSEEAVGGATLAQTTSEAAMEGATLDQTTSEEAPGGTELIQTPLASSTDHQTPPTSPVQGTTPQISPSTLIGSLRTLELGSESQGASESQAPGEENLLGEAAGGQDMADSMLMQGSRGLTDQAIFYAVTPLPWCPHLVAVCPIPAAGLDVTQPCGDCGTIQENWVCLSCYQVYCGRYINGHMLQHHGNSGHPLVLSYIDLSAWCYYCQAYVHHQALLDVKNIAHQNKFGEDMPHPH

[3] = molecular target: CYP2C19 (Homo sapiens, UniProt P33261); assay: Inhibition of CYP2C19 (unknown origin) at 10 uM relative to control; type: ADME
[4] = Cytotoxicity against human MCF7 cells assessed as cell growth inhibition at 10 uM after 48 hrs relative to control; type: cell-based
[5] = Cytotoxicity against human U2OS cells assessed as cell growth inhibition at 10 uM after 48 hrs relative to control; type: cell-based
[6] = molecular target: CYP2C9 (Homo sapiens, UniProt P11712); assay: Inhibition of CYP2C9 (unknown origin) at 10 uM relative to control; type: ADME
[7] = molecular target: HDAC9 (Homo sapiens, UniProt Q9UKV0); assay: Inhibition of HDAC9 (unknown origin) at 10 uM relative to control
[8] = Cytotoxicity against human MCF7 cells assessed as cell growth inhibition at 10 uM after 24 hrs relative to control; type: cell-based
[9] = molecular target: CYP3A4 (Homo sapiens, UniProt P08684); assay: Inhibition of CYP3A4 (unknown origin) at 10 uM relative to control; type: ADME
[10] = molecular target: CYP2D6 (Homo sapiens, UniProt P10635); assay: Inhibition of CYP2D6 (unknown origin) at 10 uM relative to control; type: ADME
[11] = Cytotoxicity against human U2OS cells assessed as cell growth inhibition at 10 uM after 24 hrs relative to control; type: cell-based
[12] = molecular target: 3',5'-cyclic-AMP phosphodiesterase 4C (Homo sapiens) (UniProt Q08493); assay: Inhibition of PDE4C1 (unknown origin) at 10 uM relative to control
[13] = Cytotoxicity against human HEK293 cells assessed as cell growth inhibition at 10 uM after 48 hrs relative to control; type: cell-based
[14] = Cytotoxicity against human hTERT cells assessed as cell growth inhibition at 10 uM after 24 hrs relative to control; type: cell-based, hTERT-BJ
[15] = Cytotoxicity against human HEK293 cells assessed as cell growth inhibition at 10 uM after 24 hrs relative to control; type: cell-based
[16] = molecular target: T2, SIRT7 (Homo sapiens, UniProt Q9NRC8); assay: Inhibition of SIRT7 (unknown origin) at 10 uM relative to control
T2 sequence (Q9NRC8 whole entry): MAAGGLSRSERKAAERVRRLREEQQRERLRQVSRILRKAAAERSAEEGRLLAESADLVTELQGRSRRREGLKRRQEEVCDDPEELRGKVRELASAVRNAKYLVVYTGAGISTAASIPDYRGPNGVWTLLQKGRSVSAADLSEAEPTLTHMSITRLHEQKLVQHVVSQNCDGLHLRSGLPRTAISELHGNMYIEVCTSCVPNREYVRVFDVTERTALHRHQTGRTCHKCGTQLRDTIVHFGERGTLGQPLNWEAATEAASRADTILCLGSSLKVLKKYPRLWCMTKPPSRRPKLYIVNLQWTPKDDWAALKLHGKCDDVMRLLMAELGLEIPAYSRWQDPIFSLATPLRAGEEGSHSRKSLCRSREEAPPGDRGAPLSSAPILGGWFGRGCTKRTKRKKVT

[17] = molecular target: T3, CYP1A2 (Homo sapiens, UniProt P05177); assay: Inhibition of CYP1A2 (unknown origin) at 10 uM relative to control; type: ADME
T3 sequence (P05177 whole entry): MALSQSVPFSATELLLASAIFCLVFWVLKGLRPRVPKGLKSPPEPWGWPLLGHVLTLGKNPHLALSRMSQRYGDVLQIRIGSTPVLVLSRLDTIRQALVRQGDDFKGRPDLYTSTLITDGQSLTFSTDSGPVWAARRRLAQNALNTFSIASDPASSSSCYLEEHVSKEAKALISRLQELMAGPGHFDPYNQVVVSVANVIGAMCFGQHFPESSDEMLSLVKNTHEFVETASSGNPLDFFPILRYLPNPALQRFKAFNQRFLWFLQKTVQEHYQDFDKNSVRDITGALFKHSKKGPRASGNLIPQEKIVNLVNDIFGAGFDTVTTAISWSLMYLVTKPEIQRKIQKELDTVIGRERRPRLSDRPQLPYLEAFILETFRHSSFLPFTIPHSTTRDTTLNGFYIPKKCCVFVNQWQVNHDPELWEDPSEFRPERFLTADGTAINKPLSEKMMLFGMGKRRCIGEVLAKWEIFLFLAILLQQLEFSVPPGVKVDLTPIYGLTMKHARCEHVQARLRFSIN

[18] = molecular target: hERG (KCNH2) (Homo sapiens, UniProt Q12809); assay: Inhibition of human ERG at 10 uM by fluorescence polarization assay relative to control
[19] = molecular target: Aurora B (Homo sapiens, UniProt Q96GD4); assay: Inhibition of Aurora B (unknown origin) at 10 uM relative to control
[20] = molecular target: T4, HDAC8 (Homo sapiens, UniProt Q9BY41); assay: Inhibition of HDAC8 (unknown origin) at 10 uM relative to control
T4 sequence (Q9BY41 whole entry): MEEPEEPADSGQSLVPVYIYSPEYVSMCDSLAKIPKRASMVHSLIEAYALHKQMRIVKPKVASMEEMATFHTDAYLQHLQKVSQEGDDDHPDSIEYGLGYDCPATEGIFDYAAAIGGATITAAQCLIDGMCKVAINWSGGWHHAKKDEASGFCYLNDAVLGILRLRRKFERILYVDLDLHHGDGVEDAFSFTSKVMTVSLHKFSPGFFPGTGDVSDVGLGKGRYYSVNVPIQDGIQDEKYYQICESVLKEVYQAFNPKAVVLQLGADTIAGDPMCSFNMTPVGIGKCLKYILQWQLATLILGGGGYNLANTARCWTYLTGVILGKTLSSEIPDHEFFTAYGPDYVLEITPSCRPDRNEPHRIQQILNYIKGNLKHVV

[21] = Cytotoxicity against human hTERT cells assessed as cell growth inhibition at 10 uM after 48 hrs relative to control; type: cell-based, hTERT-BJ

CYP2C9, sequence (P11712 whole entry): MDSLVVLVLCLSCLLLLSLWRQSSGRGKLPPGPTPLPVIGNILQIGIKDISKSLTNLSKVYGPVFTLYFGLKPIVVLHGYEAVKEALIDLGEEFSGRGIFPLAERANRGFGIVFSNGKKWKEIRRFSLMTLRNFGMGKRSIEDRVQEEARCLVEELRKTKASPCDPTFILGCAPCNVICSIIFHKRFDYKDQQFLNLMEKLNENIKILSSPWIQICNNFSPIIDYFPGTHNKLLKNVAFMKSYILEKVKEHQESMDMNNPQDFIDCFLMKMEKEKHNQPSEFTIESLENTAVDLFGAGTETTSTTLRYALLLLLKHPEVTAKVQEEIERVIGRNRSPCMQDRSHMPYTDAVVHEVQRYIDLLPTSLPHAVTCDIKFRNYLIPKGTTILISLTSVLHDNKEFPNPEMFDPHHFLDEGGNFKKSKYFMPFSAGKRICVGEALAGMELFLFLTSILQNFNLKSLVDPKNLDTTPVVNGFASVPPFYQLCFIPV
HDAC9, sequence (Q9UKV0 whole entry): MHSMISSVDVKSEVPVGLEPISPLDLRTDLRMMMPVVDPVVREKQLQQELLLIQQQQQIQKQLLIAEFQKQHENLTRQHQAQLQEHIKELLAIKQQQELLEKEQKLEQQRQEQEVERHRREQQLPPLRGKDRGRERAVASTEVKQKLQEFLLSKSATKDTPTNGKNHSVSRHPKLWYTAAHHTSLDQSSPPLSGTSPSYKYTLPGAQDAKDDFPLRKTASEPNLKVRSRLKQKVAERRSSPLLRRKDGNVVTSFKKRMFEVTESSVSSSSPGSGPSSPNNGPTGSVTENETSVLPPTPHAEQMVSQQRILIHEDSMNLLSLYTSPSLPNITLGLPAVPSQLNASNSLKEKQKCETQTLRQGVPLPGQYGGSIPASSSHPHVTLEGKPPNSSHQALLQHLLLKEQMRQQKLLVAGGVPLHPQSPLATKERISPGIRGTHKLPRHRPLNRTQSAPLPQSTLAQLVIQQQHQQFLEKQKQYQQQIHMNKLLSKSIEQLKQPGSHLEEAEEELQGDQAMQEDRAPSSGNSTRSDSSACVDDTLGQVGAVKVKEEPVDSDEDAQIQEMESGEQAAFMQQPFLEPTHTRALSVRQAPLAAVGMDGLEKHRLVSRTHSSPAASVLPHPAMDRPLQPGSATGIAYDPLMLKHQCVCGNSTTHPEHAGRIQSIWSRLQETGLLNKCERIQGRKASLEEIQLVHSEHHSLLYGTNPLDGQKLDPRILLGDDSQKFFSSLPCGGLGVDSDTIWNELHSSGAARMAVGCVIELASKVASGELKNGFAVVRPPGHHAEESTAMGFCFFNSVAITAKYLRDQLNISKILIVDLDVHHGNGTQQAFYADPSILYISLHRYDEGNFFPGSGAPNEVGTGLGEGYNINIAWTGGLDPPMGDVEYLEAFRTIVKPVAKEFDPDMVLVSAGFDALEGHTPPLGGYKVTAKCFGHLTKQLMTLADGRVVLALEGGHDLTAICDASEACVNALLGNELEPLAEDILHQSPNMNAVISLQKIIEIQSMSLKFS
CYP2C19, sequence (P33261 whole entry): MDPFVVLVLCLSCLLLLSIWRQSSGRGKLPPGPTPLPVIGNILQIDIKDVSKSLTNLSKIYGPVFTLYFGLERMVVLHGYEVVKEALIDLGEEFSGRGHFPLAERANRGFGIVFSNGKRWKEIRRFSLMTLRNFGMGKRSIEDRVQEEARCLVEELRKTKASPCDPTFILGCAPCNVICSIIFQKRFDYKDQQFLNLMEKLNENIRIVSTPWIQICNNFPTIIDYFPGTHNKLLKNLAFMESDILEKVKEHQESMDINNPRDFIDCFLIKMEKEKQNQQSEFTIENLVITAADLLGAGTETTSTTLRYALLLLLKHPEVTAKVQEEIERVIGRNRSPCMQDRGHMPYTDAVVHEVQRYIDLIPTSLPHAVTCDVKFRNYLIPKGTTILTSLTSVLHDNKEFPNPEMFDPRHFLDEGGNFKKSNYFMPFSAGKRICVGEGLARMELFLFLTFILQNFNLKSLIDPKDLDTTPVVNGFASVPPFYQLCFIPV
HDAC4, sequence (P56524 whole entry): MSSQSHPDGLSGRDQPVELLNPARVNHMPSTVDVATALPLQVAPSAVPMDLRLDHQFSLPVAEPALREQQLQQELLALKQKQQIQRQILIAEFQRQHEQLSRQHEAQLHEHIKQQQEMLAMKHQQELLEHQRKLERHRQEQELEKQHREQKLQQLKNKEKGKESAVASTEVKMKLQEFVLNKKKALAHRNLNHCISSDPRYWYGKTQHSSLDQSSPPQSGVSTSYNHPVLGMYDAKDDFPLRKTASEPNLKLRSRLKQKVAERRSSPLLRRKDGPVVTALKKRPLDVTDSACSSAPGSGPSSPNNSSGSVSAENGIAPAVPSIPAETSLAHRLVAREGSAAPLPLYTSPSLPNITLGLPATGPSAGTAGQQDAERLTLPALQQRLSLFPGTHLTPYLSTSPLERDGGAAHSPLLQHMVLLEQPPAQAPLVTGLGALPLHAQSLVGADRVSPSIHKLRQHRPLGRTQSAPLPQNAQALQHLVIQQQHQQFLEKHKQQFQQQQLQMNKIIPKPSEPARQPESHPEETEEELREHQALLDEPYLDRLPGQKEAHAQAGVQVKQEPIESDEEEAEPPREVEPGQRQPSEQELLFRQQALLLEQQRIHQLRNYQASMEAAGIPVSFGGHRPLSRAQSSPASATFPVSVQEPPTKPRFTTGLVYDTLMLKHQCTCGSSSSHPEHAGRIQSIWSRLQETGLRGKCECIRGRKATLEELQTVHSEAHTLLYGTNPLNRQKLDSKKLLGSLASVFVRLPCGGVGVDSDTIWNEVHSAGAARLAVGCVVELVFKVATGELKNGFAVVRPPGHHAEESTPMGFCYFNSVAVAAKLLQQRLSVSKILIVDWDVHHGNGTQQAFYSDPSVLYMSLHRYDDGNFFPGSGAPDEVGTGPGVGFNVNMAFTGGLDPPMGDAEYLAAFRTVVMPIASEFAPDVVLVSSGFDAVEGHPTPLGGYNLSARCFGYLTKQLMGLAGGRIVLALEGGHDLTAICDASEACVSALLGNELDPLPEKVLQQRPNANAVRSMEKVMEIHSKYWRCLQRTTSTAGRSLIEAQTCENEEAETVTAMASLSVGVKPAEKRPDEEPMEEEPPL
CYP3A4, sequence (P08684 whole entry): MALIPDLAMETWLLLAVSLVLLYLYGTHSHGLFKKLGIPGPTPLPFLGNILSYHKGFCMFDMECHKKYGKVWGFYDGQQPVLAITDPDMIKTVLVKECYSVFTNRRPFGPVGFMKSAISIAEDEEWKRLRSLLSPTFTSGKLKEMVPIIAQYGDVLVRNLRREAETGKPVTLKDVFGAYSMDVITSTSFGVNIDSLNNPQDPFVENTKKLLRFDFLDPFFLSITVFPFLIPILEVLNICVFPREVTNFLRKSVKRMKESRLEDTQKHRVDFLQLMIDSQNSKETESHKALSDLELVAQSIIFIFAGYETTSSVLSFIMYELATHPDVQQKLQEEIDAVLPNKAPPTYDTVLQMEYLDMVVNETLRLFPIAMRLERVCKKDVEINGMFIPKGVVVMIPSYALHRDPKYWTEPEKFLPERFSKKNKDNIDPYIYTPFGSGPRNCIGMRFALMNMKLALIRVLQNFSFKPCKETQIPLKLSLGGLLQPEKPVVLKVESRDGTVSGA
Aurora B, sequence (Q96GD4 whole entry): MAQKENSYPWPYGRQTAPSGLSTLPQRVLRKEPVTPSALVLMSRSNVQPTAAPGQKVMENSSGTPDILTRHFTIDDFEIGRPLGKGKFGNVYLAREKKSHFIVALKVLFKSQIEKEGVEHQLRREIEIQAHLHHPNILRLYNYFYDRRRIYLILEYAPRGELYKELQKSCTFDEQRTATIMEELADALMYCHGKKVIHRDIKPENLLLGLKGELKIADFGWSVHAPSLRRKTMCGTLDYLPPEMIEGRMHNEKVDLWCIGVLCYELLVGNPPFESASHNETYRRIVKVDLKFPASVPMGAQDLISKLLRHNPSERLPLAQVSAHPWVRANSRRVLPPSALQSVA
CYP2D6, sequence (P10635 whole entry): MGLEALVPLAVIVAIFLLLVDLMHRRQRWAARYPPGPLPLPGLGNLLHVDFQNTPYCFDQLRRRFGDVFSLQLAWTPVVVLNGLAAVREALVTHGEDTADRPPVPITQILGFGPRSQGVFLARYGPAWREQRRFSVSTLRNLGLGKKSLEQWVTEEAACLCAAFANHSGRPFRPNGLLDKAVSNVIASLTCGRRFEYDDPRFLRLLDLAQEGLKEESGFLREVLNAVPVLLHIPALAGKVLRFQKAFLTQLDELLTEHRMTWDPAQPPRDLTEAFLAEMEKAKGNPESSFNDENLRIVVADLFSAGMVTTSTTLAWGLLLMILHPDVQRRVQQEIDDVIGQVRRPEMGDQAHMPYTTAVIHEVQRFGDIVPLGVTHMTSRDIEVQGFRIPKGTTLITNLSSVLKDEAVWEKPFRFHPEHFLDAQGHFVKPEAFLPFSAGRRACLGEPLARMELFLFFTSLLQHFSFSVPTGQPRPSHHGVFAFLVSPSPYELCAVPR

| inhibition at 10 µM [1] | inhibition at 10 µM [2] | inhibition at 10 µM [3] | inhibition at 10 µM [6] | inhibition at 10 µM [7] | inhibition at 10 µM [9] | inhibition at 10 µM [10] | inhibition [12] | inhibition at 10 µM [16] | inhibition at 10 µM [17] | inhibition at 10 µM [19] | inhibition at 10 µM [20] | SMILES | inhibition at 48 h, 10 µM [4] | inhibition at 48 h, 10 µM [5] | inhibition at 24 h, 10 µM [8] | inhibition at 24 h, 10 µM [11] | inhibition at 48 h, 10 µM [13] | inhibition at 24 h, 10 µM [14] | inhibition at 24 h, 10 µM [15] | inhibition at 10 µM [18] | further results |
| --- | --- | --- | --- | --- | --- | --- | --- | --- | --- | --- | --- | --- | --- | --- | --- | --- | --- | --- | --- | --- | --- |
| < 50% | < 50% | < 50% | < 50% | < 50% | < 50% | < 50% | < 50% | < 50% | < 50% | < 50% | < 50% | CC(C)c1cc(Cc2ccc(OCC(=O)O)cc2)ccc1N | < 50% | < 50% | < 50% | < 50% | < 50% | < 50% | < 50% | < 40% | inhibition at 48 h, 10 µM [21]: < 50% |
| < 50% | < 50% | > 91% | > 91% | < 50% | 51% | 51% | < 50% | < 50% | > 91% | < 50% | < 50% | NCCOc1ccc(Cc2ccc(N)cc2)c(C(F)(F)F)c1 | < 50% | < 50% | < 50% | < 50% | < 50% | < 50% | < 50% | 51% | inhibition at 48 h, 10 µM [21]: < 50% |
| < 50% | < 50% | < 50% | 51% | < 50% | < 50% | < 50% | < 50% | < 50% | < 50% | < 50% | < 50% | Nc1ccc(Cc2ccc(OCC(=O)O)cc2F)cc1 | < 50% | < 50% | < 50% | < 50% | < 50% | < 50% | < 50% | > 91% | inhibition at 48 h, 10 µM [21]: < 50% |
| < 50% | < 50% | > 91% | > 91% | < 50% | 51% | 51% | < 50% | < 50% | 51% | < 50% | < 50% | Cc1cc(OCCN)cc(C)c1Cc1ccc(O)cc1 | < 50% | < 50% | < 50% | < 50% | < 50% | < 50% | < 50% | 51% | inhibition at 48 h, 10 µM [21]: < 50% |
| < 50% | < 50% | > 91% | > 91% | < 50% | > 91% | 51% | < 50% | < 50% | 51% | < 50% | < 50% | CCNc1ccc(Cc2c(C)cc(OCC(=O)O)cc2C)cc1C(C)C | < 50% | < 50% | < 50% | < 50% | < 50% | < 50% | < 50% | 51% | inhibition at 48 h, 10 µM [21]: < 50% |
| < 50% | < 50% | < 50% | < 50% | < 50% | < 50% | < 50% | < 50% | < 50% | < 50% | < 50% | < 50% | CC(=O)Nc1ccc(Cc2ccc(OCC(=O)O)cc2)cc1C(C)C | < 50% | < 50% | < 50% | < 50% | < 50% | < 50% | < 50% | < 40% | inhibition at 48 h, 10 µM [21]: < 50% |
